Here are results for two compounds from patent publication US20210338647A1, “Combination of Acetylcholinesterase Inhibitor and 5-HT4 Receptor Agonist As Neuroprotective Agent In the Treatment of Neurodegenerative Diseases” (UNIVERSITE DE CAEN NORMANDIE, priority 2018, published 2021).

In one test the test system is phospho Tau (AT100). The test can be described thus: Phosphorylation of Tau (AT100) in MAP-2 neurons injured with Aβ 1-42. In kind it is cell-based, rat. As to conditions: for AT100: Aβ1-42 20 μM/2.5 μM, percentage of control, Example 3. As to the method:
(§1) Rat hippocampal neurons were cultured as described by Callizot et al. (2013) J. Neurosci. Res. 91706-716. Pregnant female rats of 17 days gestation (Rats Wistar; Janvier Labs France) were killed using a deep anesthesia with CO2 chamber followed by a cervical dislocation. Then, fetuses were removed from the uterus and immediately placed in ice-cold L15 Leibovitz medium with a 2% penicillin (10,000 U/ml) and streptomycin (10 mg/ml) solution (PS) and 1% bovine serum albumin (BSA). Hippocampal neurons were treated for 20 min at 37° C. with a trypsin-EDTA solution at a final concentration of 0.05% trypsin and 0.02% EDTA. The dissociation was stopped by adding Dulbecco's modified Eagle's medium (DMEM) with 4.5 g/l of glucose, containing DNAse I grade 11 (final concentration 0.5 mg/ml) and 10% fetal calf serum (FCS). Cells were mechanically dissociated by three forced passages through the tip of a 10-ml pipette and then centrifuged at 515×g for 10 min at 4° C. The supernatant was discarded, and the pellet was resuspended in a defined culture medium consisting of Neurobasal medium with a 2% solution of B27 supplement, 2 mmol/l of L-glutamine, 2% of PS solution, and 10 ng/ml of brain-derived neurotrophic factor (BDNF). Viable cells were counted in a Neubauer cytometer, using the trypan blue exclusion test. […] The medium was changed every 2 days.
(§2) The hippocampal neurons were exposed with Aβ solutions (see below) after 17 days of culture. The Aβ1-42 preparation was done following the procedure described by Callizot et al. (2013) J. Neurosci. Res. 91706-716. Briefly, Aβ1-42 peptide was dissolved in the defined culture medium mentioned above, at an initial concentration of 40 μM. This solution was gently agitated for 3 days at 37° C. in the dark and immediately used after being properly diluted in culture medium to the concentrations used (20 μM (plate 1) or 2.5 μM (plate 2) corresponding to 2 μM or 0.25 μM of oligomers (AβO) respectively).
(§3) Donecopride fumarate was solved in culture medium and preincubated 1 h before Aβ application. Aβ1-42 preparation was added to a final concentration of 20 or 2.5 μM (=2 μM or 0.25 μM of AβO, evaluated by automatic Western Blot) diluted in control medium in presence of Donecopride.
(§4) Donecopride fumarate (Donecopride) was tested on one culture in a 96 well plate (6 wells per conditions). The compound was preincubated one hour before […] application. The following conditions were assessed:
(§5) After permeabilization with 0.1% of saponin, cells were incubated for 2 h with:
b) mouse monoclonal antibody anti-phospho Tau (AT100) at dilution of 1/400 in PBS containing 1% fetal calf serum and 0.1% of saponin.
(§6) For each condition, 30 pictures (representative of the whole well area) per well were taken using ImageXpress (Molecular Devices) at 20× magnification. All images were taken with the same acquisition parameters. Analyses were performed automatically by using Custom Module Editor (Molecular Devices).
area of tau in neurons (μm^2, overlapping with MAP-2 positive neurons).
(§7) Rat hippocampal neurons were cultured as described by Callizot et al. (2013) J. Neurosci. Res. 91:706-716. Briefly, pregnant female rats of 17 days gestation (Rats Wistar; Janvier Labs France) were killed using a deep anesthesia with CO2 chamber and a cervical dislocation. Then, fetuses were removed from the uterus and immediately placed in ice-cold L15 Leibovitz medium with a 2% penicillin (10,000 U/ml) and streptomycin (10 mg/ml) solution (PS) and 1% bovine serum albumin (BSA). The hippocampi were treated for 20 min at 37° C. with a trypsin-EDTA solution at a final concentration of 0.05% trypsin and 0.02% EDTA. The dissociation was stopped by addition of Dulbecco's modified Eagle's medium (DMEM) with 4.5 g/l of glucose, containing DNAse I grade II (final concentration 0.5 mg/ml) and 10% fetal calf serum (FCS). Cells were mechanically dissociated by three forced passages through the tip of a 10-ml pipette.

Test [1] relates to rat primary hippocampal neurons injured with Aβ 1-42. The test is described as follows: Survival of MAP-2 neurons in primary culture of hippocampal neurons injured with Aβ 1-42. It is filed as cell-based. As to conditions: for Survival: Aβ1-42 20 μM/2.5 μM, percentage of control, Example 3. As to the method: as §1
as §2, with “respectively). […]” for “respectively).”
The compound was preincubated one hour before […] application. The following conditions were assessed:
as §5
a) chicken polyclonal antibody anti microtubule-associated-protein 2 (MAP-2), diluted at 1/1000 in PBS containing 1% fetal calf serum and 0.1% of saponin (this antibody allows the specific staining of neuronal cell bodies and neurites; and allow the study of neuronal cell death and neurite network).
as §6
Total number of neurons (neuron survival, number of MAP-2 positive neurons)
as §7, with “EDTA.” for “EDTA. The dissociation was stopped by addition of Dulbecco's modified Eagle's medium (DMEM) with 4.5 g/l of glucose, containing DNAse I grade II (final concentration 0.5 mg/ml) and 10% fetal calf serum (FCS). Cells were mechanically dissociated by three forced passages through the tip of a 10-ml pipette.”

For test [2] the test system is unchanged. The test can be described thus: Number of synapses (PSD95/SYN overlap) in primary culture of hippocampal neurons injured with Aβ 1-42. As to conditions: for Synapses: Aβ1-42 20 μM/2.5 μM, percentage of control, Example 3. In kind it is cell-based. The protocol: as §1, §2, §3, §4, §5
a) mouse monoclonal antibody anti post synaptic density 95 kDa (PSD95) at a dilution of 1/100 in PBS containing 1% fetal calf serum and 0.1% of saponin.
b) Rabbit polyclonal antibody anti-synaptophysin (SYN) at the dilution of 1/100 in PBS containing 1% fetal calf serum and 0.1% of saponin.
For each condition, 40 pictures per well were taken using ImageXpress (Molecular Devices) with 40× magnification. All images were taken with the same acquisition parameters.
Synapses evaluation was performed automatically by using Custom module editor (Molecular Devices).
Total number of synapses (overlapping between PSD95/SYN).
To assess the formation of synapses, the distribution of PSD-95, a post-synaptic marker, and synaptophysin, a pre-synaptic marker, was studied. A structure positive for both PSD-95 and synaptophysin staining was considered as a synapse.
Rat hippocampal neurons were cultured as described by Callizot et al. (2013) J. Neurosci. Res. 91:706-716.

The mark [3] stands for this setting: Aβ 1-42 injured hippocampal neurons, Example 3 step 1.

Molecules are shown by their SMILES. Marks after values point to notes of the source that are not given here.

On to `COc1cc2c(cc1OC)C(=O)C(CC1CCN(Cc3ccccc3)CC1)C2` (stereo not drawn) [Donepezil], for which the AT100 came to 181% in the test on phospho Tau (AT100) (donepezil 100 pM); 165%* in the test on phospho Tau (AT100) (donepezil 1 nM); 165% in the test on phospho Tau (AT100) (donepezil 1 nM, listed as donepezil); 146%* in the test on phospho Tau (AT100) (donepezil 10 nM); 139%* with phospho Tau (AT100) (donepezil 50 nM); 140%* in the test on phospho Tau (AT100) (donepezil 100 nM). The AT100 worked out at 142%* with phospho Tau (AT100) (donepezil 500 nM), 141%* in the test on phospho Tau (AT100) (donepezil 1 μM) and 143%* with phospho Tau (AT100) (donepezil 10 μM). Moreover, the “Lowest active dose in this model” value in test [1] (Aβ 1-42 injured hippocampal neurons, any parameter of Table 7) came out at 1 nM. Also, the Survival in test [1] (donepezil 100 pM) worked out at 69%; in test [1] (donepezil 1 nM) it was 75%*; in test [1] (donepezil 10 nM) it was 86%*; in test [1] (donepezil 50 nM), 91%*; in test [1] (donepezil 100 nM), 90%*; in test [1] (donepezil 500 nM) it was 86%*. The Survival in test [1] (donepezil 1 μM) and in test [1] (donepezil 10 μM) was 85%* throughout. Also, in test [2] (Donepezil 1 μM, Aβ 1-42 injured hippocampal neurons, Example 1), the “Number of synapses normalized by the number of neurons (formation of new synapses)” value is recorded as “had no effect”. Further, the Synapses in test [2] (donepezil 100 pM) is given as 68%; in test [2] (donepezil 1 nM), 72%; in test [2] (donepezil 10 nM), 81%*; in test [2] (donepezil 50 nM) it was 84%*; in test [2] (donepezil 100 nM) it was 87%*; in test [2] (donepezil 500 nM), 90%*. Also, the Synapses in test [2] (donepezil 1 μM) came out at 91%*; in test [2] (donepezil 10 μM), 93%*.
`CCCCN1CCC(CCC(=O)c2cc(Cl)c(N)cc2OC)CC1` [RS67333, 1-(4-amino-5-chloro-2-methoxy-phenyl)-3-(1-butyl-4-piperidinyl)-1-propanone]: the “Lowest protective active dose: hyperphosphorylation of Tau” value with phospho Tau (AT100) (setting [3]) was 1 nM. Further, in test [1] (setting [3]), the “Lowest protective active dose: neuronal survival” value was found to be 50 nM. Also, the “Lowest protective active dose: synapse” value in test [2] (setting [3]) was determined as 1 µM.
